In BindingDB's records for doi:10.1021/jm960097t (Duquesne University, 1996):
pIC50: −log10 of the molar value.

Assays:
[1] = molecular target: Thymidylate synthase (Streptococcus faecium); experiment: The inhibitory concentration of compound was evaluated on Streptococcus faecium Thymidylate synthase
[2] = molecular target: Thymidylate synthase (Pneumocystis carinii); experiment: The inhibitory concentration of compound was evaluated on Pneumocystis carini Thymidylate synthase

Compound	pIC50 [1]	pIC50 [2]
Cc1[nH]c2nc(N)[nH]c(=O)c2c1Sc1ccc2ccccc2c1 [2-Amino-6-methyl-5-(naphthalen-2-ylsulfanyl)-3,7-dihydro-pyrrolo[2,3-d]pyrimidin-4-one]	< 4.60	–
Cc1[nH]c2nc(N)[nH]c(=O)c2c1Sc1ccncc1 [2-Amino-6-methyl-5-(pyridin-4-ylsulfanyl)-3,7-dihydro-pyrrolo[2,3-d]pyrimidin-4-one]	4.54	–
Cc1[nH]c2nc(N)[nH]c(=O)c2c1Sc1ccccc1 [2-Amino-6-methyl-5-phenylsulfanyl-3,7-dihydro-pyrrolo[2,3-d]pyrimidin-4-one]	< 4.52	4.22
